Here are results for three compounds from article PMC7228129, “Evaluation of Developmental Toxicity, Developmental Neurotoxicity, and Tissue Dose in Zebrafish Exposed to GenX and Other PFAS” (Environmental Health Perspectives, 2020).

Entries after “also recorded” stand apart in the source; their conditions may differ. Read-outs that look alike come from different tables or passages of the source.

For data set [1], the system named is zebrafish. Nature of the data set: Developmental neurotoxicity (DNT) assay, light/dark locomotor behavior test. Format: in vivo, Danio rerio. As to conditions: for Concentration causing hyperactivity in D1 period: dark 1; for Concentration causing hyperactivity in D1 period / Concentration causing hyperactivity in D2 period / Concentration causing hyperactivity in L1 period / Concentration causing hyperactivity in L2 period: vs 0.4% DMSO; for Concentration causing hyperactivity in D2 period: dark 2; for Concentration causing hyperactivity in L1 period: light 1; for Concentration causing hyperactivity in L2 period: light 2; for DNT assay phenotype: Table 5 summary, this study (some rows also list literature). As for the experimental part:
(§1) At 0 dpf, zebrafish embryos were bleached as previously described ([Tal et al. 2017]). A single embryo at the dome-to-epiboly stages ([Kimmel et al. 1995]) was placed into each individual well of a 96-well plate containing a 40-μm nylon mesh filter (Millipore, Catalog No. MANMN4010) with 400μL of 10% Hanks’ balanced salt solution (HBSS) per well. Filter inserts containing zebrafish embryos were transferred to 96-well culture trays (Millipore, Catalog No. MAMCS9610) containing 250μL of 10% HBSS ([Westerfield 2007]) and 1μL of 250× working solutions per well. A final concentration of 0.4% DMSO was used for all exposure groups and as a vehicle control. In the case of GenX Free Acid in Study 2 (Figure 1), DI water was used as a vehicle control. Daily, from 1–5 dpf, plates underwent 100% media changes to refresh chemical dosing solutions by blotting (Brandel; Catalog No. FPXLR-196) and transferring mesh inserts containing zebrafish to new bottom plates (Millipore; Catalog No. MAMCS9610). To minimize evaporation, plates were sealed (Biorad; Catalog No. MSA5001) and wrapped with parafilm. Plates were maintained on a 14 h:10 h light cycle at 26.0°C and scored daily for death, malformations, hatching, and swim bladder inflation. At 6 dpf, plates were evaluated by two independent observers and DevTox or DNT assays were performed or media and tissue were collected for analytical chemistry analyses as described below.
To increase the likelihood of observing behavioral effects in morphologically normal larvae, the highest concentration evaluated in the DNT assay was the lowest observed effect concentration (LOEC) determined in DevTox assay. Zebrafish were exposed in parallel to 4.4, 7.9, 14.0, 25.1, 44.8, or 80.0μM PFOA, PFHxS, PFHxA, or ADONA or 0.2, 0.3, 0.6, 1.0, 1.8, or 3.1μM PFOS or 0.4% DMSO. Subsequently, as part of Study 1, exposure to 4.4, 7.9, 14.0, 25.1, 44.8, or 80.0μM PFESA1, or 0.4% DMSO was evaluated. In Study 2, zebrafish were exposed to 4.4, 7.9, 14.0, 25.1, 44.8, or 80.0μM GenX Free Acid, or DI water. In Study 3, to increase the likelihood of observing malformations with shorter-chain compounds at multiple test concentrations, the highest concentration evaluated was 100.0μM . Zebrafish were exposed to 5.5, 9.8, 17.6, 31.4, 56.0, or 100.0μM PFBS; 3.1, 5.5, 9.8, 17.6, 31.4, or 56.0μM PFHxS; 1.7, 3.1, 5.5, 9.8, 17.6, or 31.4μM PFHpS; or 0.5, 1.0, 1.7, 3.1, 5.5, or 9.8μM PFOS, or 0.4% DMSO. Subsequently, as part of Study 3, zebrafish were exposed to 3.1, 5.5, 9.8, 17.6, 31.4, or 56.0μM PFPeS, or 0.4% DMSO. Chemical exposures and assessments were performed daily, as described above. To evaluate swimming behavior in a light/dark behavior test, microtiter plates were placed in a dark, temperature-controlled behavior testing room set to 26.0°C for at least 2 h prior to testing. At the time of testing, microtiter plates were placed on a Noldus tracking apparatus. Locomotor activity was recorded (30 frames/s) for a total of 60 min consisting of a 20-min dark acclimation period (0 lux) that was not analyzed followed by a 40-min testing period consisting of a 20-min light period (5.0 lux) and 20-min dark period (0 lux). Videos were analyzed using Ethovision software (version 3.1; Noldus Information Technology) as previously described ([Jarema et al. 2015]). Locomotor activity was collected for each individual fish for each 2-min period (minimum distance moved, set to 0.135cm ). Thus, for a 40-min test, 20 data points were collected per larvae. […] Four additional criteria for inclusion of individual larvae were applied. One, all larvae that were identified as abnormal, severely abnormal, or dead were excluded. Two, larvae with uninflated swim bladders were removed from analyses. Three, individual larvae that moved <2cm in either […] dark period were removed.

Data set [2] has as its system zebrafish. Nature of the data set: Developmental toxicity (DevTox) assay. Format: in vivo, Danio rerio. The note with it: for EC50: Hill fit; for DevTox assay phenotype: Table 5 summary, this study (some rows also list literature). The procedure:
as §1
In Study 1 (Figure 1), zebrafish were exposed, as described in the “Chemical Exposures” section, to 0.04, 0.1, 0.4, 1.1, 3.1, 9.3, 27.2, or 80.0μM PFOS, PFOA, PFHxS, PFHxA, or ADONA, or 0.4% DMSO. Six 96-well plates were tested with a single chemical concentration included on each microtiter plate. Subsequently, as part of Study 1, zebrafish were exposed to 0.04, 0.1, 0.4, 1.1, 3.1, 9.3, 27.2, or 80.0μM PFESA1, or 0.4% DMSO. In Study 2, GenX Free Acid diluted in DI water was tested by exposing zebrafish to 0.04, 0.1, 0.4, 1.1, 3.1, 9.3, 27.2, or 80.0μM of the compound or DI water. […] Zebrafish were exposed to 1.7, 3.1, 5.5, 9.8, 17.6, 31.4, 56.0, or 100.0μM of PFBS, PFHxS, PFHpS, or PFOS or 0.4% DMSO. Subsequently, zebrafish were exposed to 1.7, 3.1, 5.5, 9.8, 17.6, 31.4, 56.0, or 100.0μM PFPeS, or 0.4% DMSO. Chlorpyrifos was used as positive control for malformations ( 8.0μM ) and lethality ( 80.0μM ) ([Padilla et al. 2012]; [Tal et al. 2017]). To conduct DevTox assay assessments, at 6 dpf, two independent observers evaluated zebrafish larvae for survival, hatching, swim bladder inflation, and malformations, including curved body axis, shortened trunk, pericardial edema, yolk sac edema, necrotic yolk sac, pectoral fin abnormalities and head/jaw abnormalities. Directly after assessments, data were reviewed and, in the case of discrepancies, consensus calls were reached. Toxicity values were assigned to descriptive data (i.e., normal=0 , abnormal=20 , severely abnormal=50 , and dead=100 ), modified from a previously described approach ([Padilla et al. 2012]). Briefly, animals with a single malformation were scored as abnormal, whereas animals with ≥2 malformations were scored as severely abnormal.
For the DevTox assay, a Kruskal-Wallace nonparametric one-way analysis of variance (ANOVA) with a Dunn’s multiple comparison test was used to detect differences between exposure groups (* p<0.05 , ** p<0.0001 ) and LOEC values were determined. If a test for linear trend was significant ( p<0.05 ), with developmental toxicity observed at the highest concentration tested, nonlinear regression was performed with a Hill slope curve fitting for half maximal effective concentration ( EC50 ) value determinations.

The test system of data set [3] is zebrafish. As to conditions: Table 5 summary, ref Ulhaq et al. 2013b; cited from earlier work.
Data set [4] deals with zebrafish. As to conditions: Table 5 summary; zebrafish; ref Hagenaars et al. 2011; Ulhaq et al. 2013a; cited from earlier work.
[5] abbreviates: Study 3, daily 0–5 dpf, tested 6 dpf.
Where [6] appears, read: Danio rerio, Study 3, 1.7–100.0 μM daily 0–5 dpf, scored 6 dpf, 0.4% DMSO.
[7] abbreviates: Study 3, 1.7–100.0 μM daily 0–5 dpf, scored 6 dpf, 0.4% DMSO.

The EC50 is the concentration at which the effect is half-maximal.

For the compound `O=S(=O)(O)C(F)(F)C(F)(F)C(F)(F)C(F)(F)C(F)(F)F` [PFPeS, Perfluoropentanesulfonic acid], in the data set on zebrafish [1] (setting [5]), the “Concentration causing hyperactivity in D1 period” value is listed as “no effect”, the “Concentration causing hyperactivity in D2 period” value was “no effect”, the “Concentration causing hyperactivity in L1 period” value was determined as 5.5 µM and the “Concentration causing hyperactivity in L2 period” value was 3.1 to 5.5 µM. In addition, in the data set with zebrafish [1], the DNT assay phenotype result is reported as “Hyperactivity^a”. In the data set with zebrafish [2] (setting [6]), this compound returned an EC50 of 48.8 µM. Further, the EC50 with zebrafish [2] (setting [7]) worked out at 48.8 µM. Also, in the data set with zebrafish [2], the DevTox assay phenotype result is on record as “Positive^a”.
For `O=S(=O)(O)C(F)(F)C(F)(F)C(F)(F)C(F)(F)C(F)(F)C(F)(F)C(F)(F)F` [PFHpS, Perfluoroheptanesulfonic acid], in the data set with zebrafish [1] (setting [5]), the “Concentration causing hyperactivity in D1 period” value was in the range of 3.1 to 5.5 µM, the “Concentration causing hyperactivity in D2 period” value is “no effect”, the “Concentration causing hyperactivity in L1 period” value turned out to be 5.5 µM and the “Concentration causing hyperactivity in L2 period” value was 3.1 to 5.5 µM. Also, the DNT assay phenotype entry in the data set on zebrafish [1] is “Hyperactivity^a”. Moreover, the response in the data set with zebrafish [2] (setting [6]) was half-maximal at 168 µM (EC50). In addition, the DevTox assay phenotype result in the data set on zebrafish [2] was “Positive^a”. For the same compound, the “LOEC for developmental toxicity” value in the data set with zebrafish [2] (sulfonic acid PFAS study, 1.7–100.0 μM daily 0–5 dpf, scored 6 dpf, 0.4% DMSO) amounted to 31.4 µM.
As to `O=S(=O)(O)C(F)(F)C(F)(F)C(F)(F)C(F)(F)F` [PFBS, Perfluorobutanesulfonic acid], the “Developmental neurotoxicity / locomotor activity outcome” value with zebrafish [1] (Study 3, daily 0–5 dpf, tested 6 dpf, 0.4% DMSO) is on record as “did not result in significant locomotor effects; also recorded: negative”. Besides, the results for the DNT assay phenotype entry in the data set with zebrafish [1] and in the data set on zebrafish [3] were “Negative^a” and “Hyperactivity”, respectively. For the same compound, the “Developmental toxicity outcome” value in the data set with zebrafish [2] (setting [7]) is “negative”. For the same compound, the DevTox assay phenotype result is recorded as “Negative” in the data set with zebrafish [2] and “Positive” in the data set with zebrafish [4].
